Patent publication US8404673B2, “Carbocyclic GlyT1 receptor antagonists” (Hoffmann-La Roche Inc., priority 2009, dated 2013)
pIC50: −log10 of the molar value.

Each molecule was assayed against T1, mGlyT-1b (Mus musculus, UniProt P28571) (assay: Glycine Uptake Inhibition Assay (mGlyT-1b)). Details: IC50 data.
T1 construct: host or cells: Flp-in-CHO
T1 sequence (P28571 1-651 isoform P28571-2): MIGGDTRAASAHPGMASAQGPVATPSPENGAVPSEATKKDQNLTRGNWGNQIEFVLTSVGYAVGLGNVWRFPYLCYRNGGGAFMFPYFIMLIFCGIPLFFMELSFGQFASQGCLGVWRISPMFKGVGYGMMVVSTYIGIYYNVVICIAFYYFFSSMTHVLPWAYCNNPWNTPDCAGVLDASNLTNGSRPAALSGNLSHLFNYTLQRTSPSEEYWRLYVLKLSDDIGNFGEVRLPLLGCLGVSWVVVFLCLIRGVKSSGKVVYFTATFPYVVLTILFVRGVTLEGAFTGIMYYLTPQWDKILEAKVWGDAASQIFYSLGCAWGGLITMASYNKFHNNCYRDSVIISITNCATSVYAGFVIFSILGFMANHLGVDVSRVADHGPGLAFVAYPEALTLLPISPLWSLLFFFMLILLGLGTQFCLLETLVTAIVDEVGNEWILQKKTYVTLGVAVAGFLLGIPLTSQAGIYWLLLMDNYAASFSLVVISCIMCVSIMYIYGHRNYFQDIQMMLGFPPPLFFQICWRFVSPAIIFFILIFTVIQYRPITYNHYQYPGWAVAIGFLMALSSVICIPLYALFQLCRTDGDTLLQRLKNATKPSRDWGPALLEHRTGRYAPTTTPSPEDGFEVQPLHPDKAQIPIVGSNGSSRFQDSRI
Format: cell-based
Molecule CCc1cccc(C2CC2)c1C(=O)N[C@@H]1CCC[C@@H]1N1CCCC1 (single isomer, unassigned) [Example 120, (−)-cis-2-Cyclopropyl-6-ethyl-N-(2-pyrrolidin-1-yl-cyclopentyl)-benzamide] has a pIC50 of 7.26. In the case of CCc1cccc(C2CC2)c1C(=O)N[C@@H]1CCC[C@@H]1N1CCCC1 (single isomer, unassigned) [Example 121, (+)-cis-2-Cyclopropyl-6-ethyl-N-(2-pyrrolidin-1-yl-cyclopentyl)-benzamide], the pIC50 was 7.44. Work on O=C(N[C@@H]1CCC[C@@H]1N1CCCC1)c1c(F)cc(C(F)(F)F)cc1C(F)(F)F (single isomer, unassigned) [Example 126, (−)-cis-2-Fluoro-N-(2-pyrrolidin-1-yl-cyclopentyl)-4,6-bis-trifluoromethyl-benzamide] yielded a pIC50 of 7.13. For CCc1cc(C(F)(F)F)cc(C(F)(F)F)c1C(=O)N[C@H]1CCC[C@H]1N1CCCC1 (single isomer, unassigned) [Example 141, (+)-2-Ethyl-N-(2-pyrrolidin-1-yl-cyclopentyl)-4,6-bis-trifluoromethyl-benzamide], the pIC50 was 7.36. For CCc1cc(C(F)(F)F)cc(C(F)(F)F)c1C(=O)NC1CCCC1N1CCCC1 (single isomer, unassigned) [Example 142], the pIC50 was 7.17. O=C(NC1CCCC1N1CCCC1)c1ccc(C(F)(F)F)cc1C1CC1 (single isomer, unassigned; (+)) [Example 97, (+)-2-Cyclopropyl-N-cis-(-2-pyrrolidin-1-yl-cyclopentyl)-4-trifluoromethyl-benzamide] was tested, and the pIC50 was 7.08. COc1cc(C(F)(F)F)cc(Br)c1C(=O)NC1CCCC1N1CCCC1 (single isomer, unassigned; (+)) [Example 115, (+)-2-Bromo-6-methoxy-N-cis-(2-pyrrolidin-1-yl-cyclopentyl)-4-trifluoromethyl-benzamide] was tested, and the pIC50 was 7.15. O=C(NC1CCCC1N1CCCC1)c1c(Cl)cc(C(F)(F)F)cc1Cl (single isomer, unassigned; (+)) [Example 128, (+)-2,6-Dichloro-N-cis-(2-pyrrolidin-1-yl-cyclopentyl)-4-trifluoromethyl-benzamide] was tested, and the pIC50 was 7.16. O=C(NC1CCCC1N1CCCC1)c1c(C2CC2)cc(C(F)(F)F)cc1C(F)(F)F (single isomer, unassigned; (+)) [Example 139, (+)-2-Cyclopropyl-N-((1R,2S or 1S,2R)-2-pyrrolidin-1-yl-cyclopentyl)-4,6-bis-trifluoromethyl-benzamide] was tested, and the pIC50 was 7.49. COc1cc(C(F)(F)F)cc(Br)c1C(=O)NC1CCCC1N1CCCC1 (single isomer, unassigned; (-)) [Example 114, (−)-2-Bromo-6-methoxy-N-cis-(2-pyrrolidin-1-yl-cyclopentyl)-4-trifluoromethyl-benzamide] gave a pIC50 of 7.18. With O=C(NC1CCCC1N1CCCC1)c1c(Cl)cc(C(F)(F)F)cc1Cl (single isomer, unassigned; (-)) [Example 129, (−)-2,6-Dichloro-N-cis-(2-pyrrolidin-1-yl-cyclopentyl)-4-trifluoromethyl-benzamide] the pIC50 was 7.19. For O=C(NC1CCCC1N1CCCC1)c1c(C2CC2)cc(C(F)(F)F)cc1C(F)(F)F (single isomer, unassigned; (-)) [Example 138, (−)-2-Cyclopropyl-N-((1R,2, or 1S,2R)-2-pyrrolidin-1-yl-cyclopentyl)-4,6-bis-trifluoromethyl-benzamide], the pIC50 was 7.17.

Same assay, conditions: read-out: IC50 data
With O=C(NC1CCCC1NC1CCCC1)c1ccc(C(F)(F)F)cc1C1CC1 (single isomer, unassigned; (+)) [Example 109, (+)-cis-N-2-Cyclopentylamino-cyclopentyl)-2-cyclopropyl-4-trifluoromethyl-benzamide] the pIC50 was 7.60. For O=C(NC1CCCC1NC1CCCC1)c1ccc(C(F)(F)F)cc1C1CC1 (single isomer, unassigned; (-)) [Example 110, (−)-cis-N-2-Cyclopentylamino-cyclopentyl)-2-cyclopropyl-4-trifluoromethyl-benzamide], the pIC50 was 7.27.
